The source of these data is patent US8877736B2, “Method for treating keloid by administering 3′sialyllactose or 6′sialyllactose as a pharmaceutical or cosmetic” (Benebiosis Co., Ltd., priority 2009, dated 2014).

Each structure is given as a SMILES string. Entries after “also recorded” stand apart in the source; their conditions may differ.

Format in all cases: cell-based
The test system of one series is RAW 264.7 cells. In words: Cytotoxicity analysis, MTT assay on RAW 264.7 cells. The settings on record: 0.001, 0.01, 0.1 and 1 mM, 5 days, compared with negative control (PBS), FIGS. 4a-4b. On the procedure: Cytotoxicity of sialyllactose to cells other than keloid fibroblasts was analyzed RAW 264.7 cells (TIB-71) were purchased from ATCC. Dulbecco's Modified Eagle's Medium (DMEM) was purchased from JBI and supplemented with 100 U/ml penicillin, 100 μg/ml streptomycin, and 10% fetal bovine serum (FBS). Medium was replaced every 3-4 days. The cells were incubated at 37° C. in a CO2 incubator. For investigation of cell proliferation rate, MTT quantification was performed. RAW 264.7 cells were plated at 2.0×10^3 cells/well in a 96-well plate and 3′-SL or 6′-SL was treated at a concentration of 0.001, 0.01, 0.1, and 1 mM. A negative control group was treated with PBS. After 5 days, the cells were incubated with 500 μg/ml MTT solution for 4 hr at 37° C. […], the absorbance at 540 nm was measured using formazan in diumsulfoxide (DMSO). The relative survival rates of groups treated with sialyllactose were calculated with reference to untreated sialyllactose group (i.e., PBS treatment group, 100% survival rate).
Background: Tetrazolium assays rely on reduction of a dye to a coloured formazan, in cell work by metabolically active cells.

Series [1] relates to Human keloid fibroblasts (CRL 1762). In words: TUNEL analysis of apoptosis of keloid fibroblasts. The following applies: 1 mM, 0-5 days, FIG. 3. On the procedure:
(§1) Human keloid fibroblasts (CRL 1762) were purchased from ATCC. Medium has the following composition: DMEM (Dulbecco's Modified Eagle's Medium), 4 mM L-glutamine, 100 μg/ml streptomycin, 100 U/ml penicillin and 10% fetal bovine serum. The fibroblasts were incubated at 37° C. in a CO2 incubator under humid atmosphere (5% CO2, 95% air). Medium was replaced every 3-4 days.
Using in situ cell death detection kit (TUNEL, Roche Diagnostics), apoptosis was analyzed and DNA fragmentation in keloid fibroblasts was quantified. A single layer of keloid fibroblasts was cultured directly in a tissue culture flask and then incubated with 1 mM 3′-SL, 6′-SL or PBS. Following 0, 1, 3 and 5 days, the analysis was carried out according to the manufacturer's manual.

For series [2] the test system is unchanged. In words: Cell counting of keloid fibroblasts (trypan blue). The settings on record: 1 mM, up to 12 days, compared with negative control (PBS), FIG. 1. On the procedure: as §1
Keloid fibroblasts (KF) were plated at 5×10^4 cells/well in a 6-well plate. 24 hours later, KF was incubated with 1 mM 3′-sialyllactose (3′-SL), 6′-sialyllactose (6′-SL) or excipient (Phosphate buffered saline, PBS). 3′-Sialyllactose (3′-N-Acetylneuraminyl-D-lactose, 3′-Sialyl-D-lactose or α-NeuNAc-(2→3)-β-D-Gal-(1→4)-D-Glc) or 6′-sialyllactose (6′-N-Acetylneuraminyl-lactose, 6′-Sialyl-D-lactose, or α-NeuNAc-(2→6)-β-D-Gal-(1→4)-D-Glc) were purchased from Sigma-Aldrich. After 0, 1, 5, 7, 9, and 12 days, KF was collected using trypsin-EDTA and stained with trypan blue, followed by cell counting using a blood cell counter (C-Chip DHC N15, Incyto).

For series [3] the test system is unchanged. As to the kind of experiment: XTT cell proliferation analysis of keloid fibroblasts. The settings on record: 1 mM, 0-5 days, compared with negative control (PBS), FIG. 2. As to the method:
as §1
The rate of cell proliferation was measured using Roche's Cell Proliferation Kit II (XTT) system. Keloid fibroblasts (KF) were plated at 2.0×10^3 cells/well in a 96-well plate and then treated 3′-SL, 6′-SL and PBS at a concentration of 1 mM, respectively. After 0, 1, 3 and 5 days, KF was incubated with 50 μl/well of XTT (sodium 3′-[1-(phenylaminocarbonyl)-3,4-tetrazolium]-bis(4-methoxy-6-nitro) benzene sulfonic acid hydrate) reagent for 4 hr at 37° C. and the absorbance at 470 nm was measured using a microplate reader. The relative survival rates of groups treated with sialyllactose were calculated with reference to untreated sialyllactose group (i.e., excipient treatment group, 100% survival rate).

In the case of `CC(=O)N[C@H]1[C@H]([C@H](O)[C@H](O)CO)O[C@@](O[C@H]2[C@@H](O)[C@@H](CO)O[C@@H](O[C@H]3[C@H](O)[C@@H](O)C(O)O[C@@H]3CO)[C@@H]2O)(C(=O)O)C[C@@H]1O` (stereo partly drawn) [3′-SL, α-NeuNAc-(2→3)-β-D-Gal-(1→4)-D-Glc], in the series on RAW 264.7 cells, the “proliferation of RAW 264.7 cells (MTT)” value is given as “not affected”. In addition, the “apoptosis of keloid fibroblasts (TUNEL)” value in series [1] is “induced”. Moreover, the “growth of keloid fibroblasts (cell counting)” value in series [2] is reported as “considerably inhibited”. The “proliferation of keloid fibroblasts (XTT; text says MTT analysis)” value in series [3] was “considerably inhibited”.
For the compound `CC(=O)N[C@H]1[C@H]([C@H](O)[C@H](O)CO)O[C@@](OC[C@H]2O[C@@H](O[C@H]3[C@H](O)[C@@H](O)[C@H](O)O[C@@H]3CO)[C@H](O)[C@@H](O)[C@H]2O)(C(=O)O)C[C@@H]1O` [6′-SL, α-NeuNAc-(2→6)-β-D-Gal-(1→4)-D-Glc], in the series on RAW 264.7 cells, the “proliferation of RAW 264.7 cells (MTT)” value was “not affected”. The “apoptosis of keloid fibroblasts (TUNEL)” value in series [1] is on record as “more significantly inhibited by 6′-SL than the 3′-SL”; in series [1] (listed as 6′ SL), “induced”. Besides, the “growth of keloid fibroblasts (cell counting)” value in series [2] is reported as “considerably inhibited; also recorded: more significantly inhibited by 6′-SL than the 3′-SL”. For the same compound, the “proliferation of keloid fibroblasts (XTT; text says MTT analysis)” value in series [3] was “considerably inhibited; also recorded: more significantly inhibited by 6′-SL than the 3′-SL”.
